Measured values as given in patent US9873680B2 (Gilead Sciences, Inc., priority 2014, dated 2018).
Like-named read-outs stand apart in the source and are kept apart here.

Key:
[1] = test system: HIV-IIIb; assay: Test A: Antiviral Assay in MT4 Cells; type: cell-based, HIV-1; settings: for inhibition at 0.2 µM: 0.2 μM drug concentration
Procedure: Test A: Antiviral Assay in MT4 Cells
MT-4 cells were next mixed with HIV-IIIb at an m.o.i of 0.003 for 1 hour, after which time 35 μL of virus/cell mixture (2000 cells) was immediately added to each well containing 40 μL of diluted compound. The plates were then incubated at 37° C. for 5 days. After 5 days of incubation, 25 μl of 2× concentrated CellTiter-Glo™ Reagent (catalog #G7571, Promega Biosciences, Inc., Madison, Wis.) was added to each well containing MT-4 cells. Cell lysis was carried out by incubating at room temperature for 10 min and then chemiluminescence was read.

[2] = Test B: Cytotoxicity Assay; type: cell-based; settings: human, uninfected MT-4 cells, CellTiter-Glo
Procedure: Test B: Cytotoxicity Assay Compound cytotoxicity and the corresponding CC50 values was determined using the same protocol as described in the antiviral assay (Test A) except that uninfected cells were used.

[3] = Human immunodeficiency virus 1, MT4, 120 h, MT-4 cells infected with HIV-IIIb, 5 days, values normalized to 100%, average over time, read-out: % inhibition at 0.2 μM (percent inhibition of virus-induced cell killing)

Compound	inhibition at 0.2 µM [1, 3] [%]	CC50 at 5 days [2] [µM]	inhibition at 0.2 µM ([1]; Human immunodeficiency virus 1, IIIB, MT4, comparison with previously published compounds, read-out: Response at 0.2 μM (percent inhibition of virus-induced cell killing)) [%]	inhibition at 2 µM ([1]; Human immunodeficiency virus 1, IIIB, MT4, 2 μM drug concentration, comparison with previously published compounds, read-out: Response at 2 μM (percent inhibition of virus-induced cell killing)) [%]
Cn1nc(NS(C)(=O)=O)c2c(Cl)ccc(-c3ccc(C#CC4CNCCO4)nc3[C@H](Cc3cc(F)cc(F)c3)NC(=O)Cn3nc(C(F)F)c4c3C(F)(F)[C@@H]3C[C@H]43)c21 (stereo partly drawn) [Compound 68, N-((1S)-1-(3-(4-chloro-1-methyl-3-(methylsulfonamido)-1H-indazol-7-yl)-6-(morpholin-2-ylethynyl)pyridin-2-yl)-2-(3,5-difluorophenyl)ethyl)-2-((3bS,4aR)-3-(difluoromethyl)-5,5-difluoro-3b,4,4a,5-tetrahydro-1H-cyclopropa[3,4]cyclopenta[1,2-c]pyrazol-1-yl)acetamide]	100	7.51		
Cc1cc(C#Cc2ncc(-c3ccc4c(c3)C(=O)NC4)c([C@H](Cc3cc(F)cc(F)c3)NC(=O)Cn3nc(C(F)F)c4c3C(F)(F)CCC4(F)F)n2)ccn1 [Compound 11, (S)-2-(3-(difluoromethyl)-4,4,7,7-tetrafluoro-4,5,6,7-tetrahydro-1H-indazol-1-yl)-N-(2-(3,5-difluorophenyl)-1-(2-((2-methylpyridin-4-yl)ethynyl)-5-(3-oxoisoindolin-5-yl)pyrimidin-4-yl)ethyl)acetamide]	69	0.761		
NC(=O)c1cc(-c2ccc(C#CC3(O)CCCC3)nc2[C@H](Cc2cc(F)cc(F)c2)NC(=O)Cn2nc(C(F)(F)F)c3c2C(F)(F)[C@@H]2C[C@H]32)ccc1F [Compound 15B, 5-(2-((S)-1-(2-((3bS,4aR)-5,5-difluoro-3-(trifluoromethyl)-3b,4,4a,5-tetrahydro-1H-cyclopropa[3,4]cyclopenta[1,2-c]pyrazol-1-yl)acetamido)-2-(3,5-difluorophenyl)ethyl)-6-((1-hydroxycyclopentyl)ethynyl)pyridin-3-yl)-2-fluorobenzamide]	68	3.02	68	68
CN1CCN(CC#Cc2ccc(-c3cccc4c(NS(C)(=O)=O)nn(C)c34)c([C@H](Cc3cc(F)cc(F)c3)NC(=O)Cn3nc(C(F)(F)F)c4c3C(F)(F)[C@@H]3C[C@H]43)n2)CC1 [Compound 32, 2-((3bS,4aR)-5,5-difluoro-3-(trifluoromethyl)-3b,4,4a,5-tetrahydro-1H-cyclopropa[3,4]cyclopenta[1,2-c]pyrazol-1-yl)-N—((S)-2-(3,5-difluorophenyl)-1-(3-(1-methyl-3-(methylsulfonamido)-1H-indazol-7-yl)-6-(3-(4-methylpiperazin-1-yl)prop-1-yn-1-yl)pyridin-2-yl)ethyl)acetamide]	95	8.53		
Cn1cnc(C(O)C#Cc2ccc(-c3ccc(Cl)c4c(NS(C)(=O)=O)nn(C)c34)c([C@H](Cc3cc(F)cc(F)c3)NC(=O)Cn3nc(C(F)(F)F)c4c3C(F)(F)[C@@H]3C[C@H]43)n2)c1 (stereo partly drawn) [Compound 56B, N-((1S)-1-(3-(4-chloro-1-methyl-3-(methylsulfonamido)-1H-indazol-7-yl)-6-(3-hydroxy-3-(1-methyl-1H-imidazol-4-yl)prop-1-yn-1-yl)pyridin-2-yl)-2-(3,5-difluorophenyl)ethyl)-2-((3bS,4aR)-5,5-difluoro-3-(trifluoromethyl)-3b,4,4a,5-tetrahydro-1H-cyclopropa[3,4]cyclopenta[1,2-c]pyrazol-1-yl)acetamide]	84	9.02		
Cn1nc(NS(C)(=O)=O)c2c(Cl)ccc(-c3ccc(C#CC4(C)OCCn5ccnc54)nc3[C@H](Cc3cc(F)cc(F)c3)NC(=O)Cn3nc(C(F)F)c4c3C(F)(F)[C@@H]3C[C@H]43)c21 (stereo partly drawn) [Compound 82, N-((1S)-1-(3-(4-chloro-1-methyl-3-(methylsulfonamido)-1H-indazol-7-yl)-6-((8-methyl-6,8-dihydro-5H-imidazo[2,1-c][1,4]oxazin-8-yl)ethynyl)pyridin-2-yl)-2-(3,5-difluorophenyl)ethyl)-2-((3bS,4aR)-3-(difluoromethyl)-5,5-difluoro-3b,4,4a,5-tetrahydro-1H-cyclopropa[3,4]cyclopenta[1,2-c]pyrazol-1-yl)acetamide]	90	29.6		
Cn1nc(NS(C)(=O)=O)c2c(Cl)ccc(-c3ccc(C#CC4(O)CC(F)(F)C4)nc3[C@H](Cc3cc(F)cc(F)c3)NC(=O)Cn3nc(C(F)F)c4c3C(F)(F)CCC4(F)F)c21 [Compound 104, (S)—N-(1-(3-(4-chloro-1-methyl-3-(methylsulfonamido)-1H-indazol-7-yl)-6-((3,3-difluoro-1-hydroxycyclobutyl)ethynyl)pyridin-2-yl)-2-(3,5-difluorophenyl)ethyl)-2-(3-(difluoromethyl)-4,4,7,7-tetrafluoro-4,5,6,7-tetrahydro-1H-indazol-1-yl)acetamide]	100	8.42		
Cn1nc(NS(C)(=O)=O)c2c(Cl)ccc(-c3ccc(-c4cnn(C5CCOCC5)c4)nc3[C@H](Cc3cc(F)cc(F)c3)NC(=O)Cn3nc(C(F)(F)F)c4c3C(F)(F)[C@@H]3C[C@H]43)c21 [Compound 71, N—((S)-1-(3-(4-chloro-1-methyl-3-(methylsulfonamido)-1H-indazol-7-yl)-6-(1-(tetrahydro-2H-pyran-4-yl)-1H-pyrazol-4-yl)pyridin-2-yl)-2-(3,5-difluorophenyl)ethyl)-2-((3bS,4aR)-5,5-difluoro-3-(trifluoromethyl)-3b,4,4a,5-tetrahydro-1H-cyclopropa[3,4]cyclopenta[1,2-c]pyrazol-1-yl)acetamide]	97	> 53.2		
Cn1nc(NS(C)(=O)=O)c2c(Cl)ccc(-c3ccc(C#CC4(O)CC(F)(F)C4)nc3[C@H](Cc3cc(F)cc(F)c3)NC(=O)Cn3nc(C(F)(F)F)c4c3C(F)(F)[C@@H]3C[C@H]43)c21 [Compound 103, N—((S)-1-(3-(4-chloro-1-methyl-3-(methylsulfonamido)-1H-indazol-7-yl)-6-((3,3-difluoro-1-hydroxycyclobutyl)ethynyl)pyridin-2-yl)-2-(3,5-difluorophenyl)ethyl)-2-((3bS,4aR)-5,5-difluoro-3-(trifluoromethyl)-3b,4,4a,5-tetrahydro-1H-cyclopropa[3,4]cyclopenta[1,2-c]pyrazol-1-yl)acetamide]	100	9.21		
Cn1nc(NS(C)(=O)=O)c2c(Cl)ccc(-c3ccc(C#CC4(O)CC4)nc3[C@H](Cc3cc(F)cc(F)c3)NC(=O)Cn3nc(C(F)(F)F)c4c3C(F)(F)[C@@H]3C[C@H]43)c21 [Compound 64, N—((S)-1-(3-(4-chloro-1-methyl-3-(methylsulfonamido)-1H-indazol-7-yl)-6-((1-hydroxycyclopropyl)ethynyl)pyridin-2-yl)-2-(3,5-difluorophenyl)ethyl)-2-((3bS,4aR)-5,5-difluoro-3-(trifluoromethyl)-3b,4,4a,5-tetrahydro-1H-cyclopropa[3,4]cyclopenta[1,2-c]pyrazol-1-yl)acetamide]	98	16.1		
CN(C)c1ccc(C#Cc2ccc(-c3ccc4c(c3)C(=O)NC4)c([C@H](Cc3cc(F)cc(F)c3)NC(=O)Cn3nc(C(F)(F)F)c4c3C(F)(F)[C@@H]3C[C@H]43)n2)cc1 [Compound 14, 2-((3bS,4aR)-5,5-difluoro-3-(trifluoromethyl)-3b,4,4a,5-tetrahydro-1H-cyclopropa[3,4]cyclopenta[1,2-c]pyrazol-1-yl)-N—((S)-2-(3,5-difluorophenyl)-1-(6-((4-(dimethylamino)phenyl)ethynyl)-3-(3-oxoisoindolin-5-yl)pyridin-2-yl)ethyl)acetamide]	1	> 53.2		
Cn1nc(NS(C)(=O)=O)c2c(Cl)ccc(-c3ccc(C#CC(C)(O)Cn4cncn4)nc3[C@H](Cc3cc(F)cc(F)c3)NC(=O)Cn3nc(C(F)(F)F)c4c3C(F)(F)[C@@H]3C[C@H]43)c21 (stereo partly drawn) [Compound 70B, N-((1S)-1-(3-(4-chloro-1-methyl-3-(methylsulfonamido)-1H-indazol-7-yl)-6-(3-hydroxy-3-methyl-4-(1H-1,2,4-triazol-1-yl)but-1-yn-1-yl)pyridin-2-yl)-2-(3,5-difluorophenyl)ethyl)-2-((3bS,4aR)-5,5-difluoro-3-(trifluoromethyl)-3b,4,4a,5-tetrahydro-1H-cyclopropa[3,4]cyclopenta[1,2-c]pyrazol-1-yl)acetamide]	96	14.2		
Cn1nc(NS(C)(=O)=O)c2c(Cl)ccc(-c3ccc(C#CC(O)C4CNC4)nc3[C@H](Cc3cc(F)cc(F)c3)NC(=O)Cn3nc(C(F)(F)F)c4c3C(F)(F)[C@@H]3C[C@H]43)c21 (stereo partly drawn) [Compound 65, N-((1S)-1-(6-(3-(azetidin-3-yl)-3-hydroxyprop-1-yn-1-yl)-3-(4-chloro-1-methyl-3-(methylsulfonamido)-1H-indazol-7-yl)pyridin-2-yl)-2-(3,5-difluorophenyl)ethyl)-2-((3bS,4aR)-5,5-difluoro-3-(trifluoromethyl)-3b,4,4a,5-tetrahydro-1H-cyclopropa[3,4]cyclopenta[1,2-c]pyrazol-1-yl)acetamide]	37	19.3		
